# Laboratory results: US10143668B2, “Hydroxy-substituted amino and ammonium derivatives and their medical use” (GRI BIO, INC., priority 2011, dated 2018)
# pIC50: −log10 of the molar value. Several values for one entry are separate records, joined by “and”; a condition that tells them apart may be missing. Identical values can stand only once. Counter-ions that a name gives are not always drawn. Like-named read-outs stand apart in the source and are kept apart here. Marks after values point to notes of the source that are not given here.
# Columns and labels:
# [1] = system: RBL-2H3 cells; experiment: Inhibition of mast cell degranulation (β-hexosaminidase release); type: cell-based; settings: Rattus norvegicus, RBL-2H3 cells sensitized with anti-DNP IgE, triggered with DNP-HSA
# From the text: Mast cells are key effector cells involved in allergic and inflammatory diseases, and the Rat Basophilic Leukemia clone 2H3 (RBL-2H3) cell line is a commonly used model of allergen dependent immune modulator release (degranulation) in mast cells. On their surface, they express the high affinity receptor for IgE (FcεRI) Upon binding of antigen-specific IgE to the receptor, cells become sensitized to the IgE specific antigen (allergen). When IgE-sensitized cells then encounter multivalent antigen, the antigen clusters IgE-FcεRI complexes and initiates a signal transduction cascade that leads to degranulation, that is, the release of inflammatory mediators, such as cytokines, eicosanoids, histamine and enzymes. The assay can be used as a screening method to identify immune-modulating compounds, in particular compounds useful in the medical management of allergic and inflammatory diseases and asthma. β-hexosaminidase was previously shown to be released with the same kinetics as histamine (Schwartz et al., J Immunology; 123:1445-1450 (1979)), thus offering a simple means to monitor degranulation. The RBL-2H3 cell line has been successfully used to identify compounds with anti-allergic activity (Choo et al. Planta Med., 69:518-522 (2003)).
# Cell Culture: RBL-2H3 cells obtained from the German Collection of Microorganisms and Cell Cultures (ACC312) (Braunschweig, Germany) were maintained in 70% Minimum Essential Medium with Earle's Salts, 20% RPMI 1640 Medium, 10% FBS and 2 mM L-glutamine in 95% air/5% CO2 at 37° C. and routinely checked for mycoplasma contamination. Cells were passaged every 3-4 days; after washing cells once with 35 ml PBS cells were incubated 8 min with 5 ml 0.05% Trypsin-EDTA solution at 37° C. Cells were removed from the incubator, 15 ml culture medium was added and cells were resuspended by repeated pipetting.
# Cell seeding: cells were harvested with Trypsin-EDTA as described and 50-100 μl cell suspension seeded into Costar CellBind 24 well cluster plates (no. 3337). Plates were kept for 30 min at RT under the sterile hood before being transferred to the incubator. Cells were used within one or two days after seeding.
# For sensitization, cells for immediate use were sensitized 6-12 h after plating; cells to be used the following day were sensitized 26-38 h after plating. Culture plates were removed from the incubator and checked for cell growth and contamination. The medium was discarded and cells were sensitized with anti-DNP IgE (0.4 μg/ml) in 0.4 ml culture medium overnight. Following overnight sensitization, cells were washed with 0.8 ml pre-warmed TyB and 0.38 ml test compound or vehicle control (supplemented or not with 1% FBS) were added to duplicate wells. Samples were adjusted to contain 1% vehicle for test compounds dissolved in organic solvents. Cells were incubated for 1 h at 37° C. At the end of the incubation period, cells were routinely stimulated with 20 μl DNP-HSA (2 μg/ml; final concentration 0.1 μg/ml) diluted in TyB and cells were incubated for 15 min at 37° C. Alternatively, cells were stimulated with 20 μl 5 μM ionomycin (final concentration 0.25 μM) or 20 μl 5 μM thapsigargin (final concentration 0.25 μM), both in the absence or presence of 20 nM PMA (final concentration). […]
# MUG substrate solution, 100 μl, were added to supernatant and lysate samples and plates were incubated 30 min at 37° C. […] Fluorescene was measured at 365 nm excitation and 440 nm emmission wavelengths. […]
# [2] = system: RBL-2H3 cells; experiment: Maximum tolerated concentration (cytotoxicity by lactate dehydrogenase release); type: cell-based, rat; settings: for MTC (maximum tolerated concentration): highest concentration not causing cytotoxicity (LDH release); for SI (safety index): ratio between MTC and IC50
# From the text: The safety index (SI) of a test compound is the ratio between the maximum tolerated concentration and the IC50 and is used as a measure of the relative safety of the test compound.
# [3] = system: collagen type II-induced arthritis (CIA) in mice; settings: prophylactic, 0.3 mg/kg intraperitoneally once daily
# [4] = system: allergic contact dermatitis response in mice; experiment: Allergic contact dermatitis (TDI) model in mice, mouse ear swelling test; type: in vivo
# Protocol: The anti-inflammatory and anti-allergic effects of compound 1a were assessed in a mouse model of allergic contact dermatitis, a response driven primarily by T helper type 2 (Th2) cells. […] In this model, an allergic dermatitis response is obtained by sensitizing mice to TDI and subsequently challenging them with antigen by topical administration onto the ears. A quantitative assessment of anti-inflammatory and anti-allergic effects of topically or orally administered test compounds is possible by measuring the resulting ear swelling.
# Female BALB/c-mice were obtained from Charles River (Sulzfeld, Germany) at age 8 weeks. All animals were housed in groups of eight per cage at 22° C. with a 12 h light/dark-cycle. Water and a standard diet (Altromin, Lage/Lippe, Germany) were available ad libitum. All animals were acclimatized for one week before experimental procedures were commenced.
# Experimental procedures for BALB/c mice housing, TDI sensitization and challenge, and measurement of ear thickness were performed as previously described (Baumer et al., J Pharm Pharmacol. 55:1107-1114 (2003)) with the following modifications. For active sensitization, 100 μL of 5% (w/v) TDI was administered to the shaved and stripped abdominal epidermis on day one, and for the next three consecutive days, 50 μL of 5% (w/v) TDI was applied. The allergic reaction was boosted 21 days later by application of 50 μL of 0.5% (w/v) TDI. For the examination of test compound effects, the left ears were used for the TDI challenge (20 μL of 0.5% in acetone) and ear thickness measured 3 h before and 24 h after challenge.
# Administration time: to determine optimal time for administration treatment groups were treated orally by gavage with 100 mg/kg of compound 1a (suspended in 0.5% tylose, 10 mL/kg) 1, 4 or 16 h before topical TDI challenge. One group was treated with 100 mg/kg miltefosine orally, 16 h before challenge (based on available data for optimal administration time for miltefosine) and vehicle treated mice received tylose (10 mL/kg) orally, 4 h before challenge.
# Comparison with dexamethasone: one group of mice was treated orally with compound 1a at 100 mg/kg suspended in 0.5% tylose, 4 h before topical TDI challenge. Vehicle treated mice received 0.5% tylose orally 4 h before challenge. As a positive control, dexamethasone was administered in saline solution at 1 mg/kg or 3 mg/kg, 2 h and 30 min before challenge and 1 h after challenge. The dose and dosing scheme for dexamethasone was based on previous experience showing a maximal effect in this model.
# […] The solution was applied, 2 h before topical TDI challenge by administration of 10 μl onto each of the inner and outer surfaces of the left ears. A vehicle group (n=5) was treated with propyleneglycol. As a positive control, diflorasone diacetate was administered at 0.01% (low dose) and 0.05% (high dose) in 20 μl acetone, 2 h before challenge. A basal control group was left untreated.
# Mean and standard error of the mean (SEM) were calculated from individual ear edema values. Statistical evaluation was a one-way analysis of variance (ANOVA) (if the test for normal distribution was passed) or the Kruskal-Wallis one-way ANOVA on Ranks (if the normal distribution test failed). Both were followed by a post-hoc test (Dunnett's method or Dunn's test, respectively). A p<0.05 was considered to be significant.
# [5] = system: DTH response in mice; type: in vivo; settings: 24 h after challenge
# Protocol: The anti-inflammatory and anti-allergic effects of compound 1a was assessed in a mouse model of skin delayed-type hypersensitivity (DTH) reactions and compared to a vehicle control and to the reference drug, dexamethasone. DTH reactions are antigen-specific cell-mediated immune responses, driven primarily by T helper type 1 (Th1) cells, similar to the tuberculin immunization response. The immune reaction induced by an ovalbumin challenge to animals previously sensitized with ovalbumin in Complete Freund's Adjuvant, is characterized by swelling (edema) at the site of challenge, e.g. the mouse ear. Dexamethasone, an anti-inflammatory steroid, reduces cell-mediated immune responses and was employed to validate the responsiveness of the assay to pharmacological treatment.
# Female BALB/cJW mice were bred at the University of Lodz, Lodz, Poland and housed in groups of 8 in makrolon cages with a 12 h light-dark cycle. Mice were given free access to food (Agropol S. j., Motycz, Poland) and water.
# Sensitization: The protein antigen, ovalbumin, was reconstituted in PBS at 4 mg/ml. An ovalbumin-CFA emulsion was prepared by mixing the protein solution with the CFA suspension at a ratio of 1:1, using two Luer-lock syringes. The emulsion was tested by putting a drop of emulsion onto PBS; if the emulsion remained as a tight droplet on the PBS, the emulsion was deemed ready. Mice were sensitized by subcutaneously injecting 25 μL of emulsion into each side of the tail (100 μg ovalbumin per mouse).
# Challenge: On the sixth day after sensitization, DTH was elicited by challenging animals subcutaneously (gauge 30 needle, B. Braun Melsungen, Melsungen, Germany) in the left ears with 10 μL of a 1% suspension of heat-aggregated ovalbumin (HOVA) (100 μg ovalbumin per mouse). The right ears were administered subcutaneously with PBS and served to determine the individual differences in ear thicknesses. HOVA was prepared by heating a 5% solution of ovalbumin in saline for 1 h at 80° C. with occasional swirling. After cooling to room temperature and centrifugation (400 g, 10 min at 4° C.), the pellet was washed twice with saline, resuspended at 2% in PBS and aliquots stored at −30° C. Before injection, HOVA was diluted with an equal volume of PBS and sonicated. Ear thickness was measured with a precise spring-loaded caliper (Art. No. 7309, Mitutoyo, Kawasaki, Japan) before challenge, and 24 h after challenge.
# Sensitization, challenge and ear thickness measurement were performed under anesthesia (ketamine 80 mg/kg plus xylazine 8 mg/kg, intraperitoneally).
# The anti-inflammatory effects of compound 1a were compared to a vehicle control (0.5% methyl cellulose solution) and to the reference drug, dexamethasone. Test compound was given at 25 or 100 mg/kg orally by gavage (Art. No. 432093, Harvard Apparatus GmbH, March-Hugstetten, Germany) 16 h and 3 h before sensitization and then twice daily with the final dose given 3 h prior to ear challenge (a total of 14 administrations). Dexamethasone was given at 0.1 or 1 mg/kg orally by gavage 3 h before sensitization and once daily with the final dose given 3 h prior to antigen challenge (a total of 7 administrations). All administrations were given in a volume of 10 mL/kg.
# To account for individual variability, the increase in right ear thickness, before and 24 h after administration of PBS, was subtracted from the HOVA-induced increase in left ear thickness. […]
# Mean and standard deviation (SD) were calculated from individual ear edema values. […]
Compound,pIC50 [1],MTC (maximum tolerated concentration) [2],SI (safety index) [2],clinical signs of arthritis [3],"Inhibition of mouse ear swelling ([4]; comparison with dexamethasone, 1 mg/kg oral)","Inhibition of mouse ear swelling ([4]; comparison with dexamethasone, 1 mg/kg oral, listed as dexamethasone)","Inhibition of mouse ear swelling ([4]; comparison with dexamethasone, 3 mg/kg oral)","Inhibition of mouse ear swelling ([4]; comparison with dexamethasone, 3 mg/kg oral, listed as dexamethasone)",Inhibition of mouse ear swelling ([5]; 0.1 mg/kg orally once daily),Inhibition of mouse ear swelling ([5]; 1.0 mg/kg orally once daily),"inhibitory efficacy relative to 1a at its optimal administration time of 4 h ([4]; 100 mg/kg oral, 16 h before challenge)","Inhibition of mouse ear swelling ([4]; administration time study, 100 mg/kg oral, 16 h before TDI challenge)"
"CCCCCCCCCCCCCCN(C)CC(=O)N(C)C[C@H](O)[C@@H](O)[C@H](O)[C@H](O)CO [Compound 1b, N-(2-(Methyl(tetradecyl)amino)acetyl)-N-methyl-D-glucamine hydrotrifluoroacetate]",5.31,50 µM,10.2,–,–,–,–,–,–,–,–,–
"CCCCCCCCCCCCN(C)CC(=O)N(C)C[C@H](O)[C@@H](O)[C@H](O)[C@H](O)CO [Compound 1c, N-(2-(Methyl(dodecyl)amino)acetyl)-N-methyl-D-glucamine hydrotrifluoroacetate]",4.91,100 µM,8.1,–,–,–,–,–,–,–,–,–
"CCCCCCCCCCCCCC[N+](C)(C)CC(=O)N(C)CC(O)CO (stereo not drawn) [Compound 1d, N-(2-(Dimethyl(tetradecyl)ammonio)acetyl)-N-methyl-2,3-dihydroxypropylamine trifluoroacetate]",5.51,75 µM,24.2,–,–,–,–,–,–,–,–,–
"C[C@@H]1C[C@H]2[C@@H]3CCC4=CC(=O)C=C[C@]4(C)[C@@]3(F)[C@@H](O)C[C@]2(C)[C@@]1(O)C(=O)CO [Dexamethasone, reference compound]",–,–,–,nearly completely suppressed,78.6*** %,78%,87.1*** %,87%,14%,53%,–,–
"CCCCCCCCCCCCCCCCOP(=O)([O-])OCC[N+](C)(C)C [Miltefosine, reference compound]",5.38,25 µM,6.0,–,–,–,–,–,–,–,75%,47% and 47.3^§ %
